# Data taken from patent US20260327263A1, “Anti-Bacterial Peptides” (priority 2023, published 2026).
# Where a SMILES comes first, the peptide text is derived from it. Where no end group is shown, it is not given here. [ ]: non-standard residue; d: D form. 2Nal = N[C@@H](Cc1ccc2ccccc2c1)C(=O)O
# What was measured:
# bacteria = assay: Comparison of wild-type peptide E1A to V8LQ19L (Table 14)
# Excerpt: Active peptide sequences based on ENO3 exerting significant bactericidal antibiofilm properties, and relevant to chronic wound healing are previously disclosed. The previously disclosed antimicrobial peptides (AMPs) are longer (>22-residues) in length, which would be more costly in production.
# [1] = test system: Staphylococcus aureus (SA); assay: Broth microdilution anti-bacterial assay (CLSI), Staphylococcus aureus; type: cell-based; conditions: SA; for MIC: overnight, 37° C., ≥99% inhibition; for MBC: ≥99% killing
# Experimental: (§1) To evaluate their anti-bacterial potency, broth microdilution method as per the CLSI guidelines 1 was used. […] The anti-bacterial potency of the tested agents is quantified using minimum inhibitory concentration (MIC) and minimum bactericidal concentration (MBC). […] To obtain the MBC data, 1X, 2X and 4× MIC of the peptide variants were plated to obtain the number of viable colonies compared to the original inoculum.
# (§2) Pseudomonas aeruginosa (ATCC 14213, PA), and methicillin resistant Staphylococcus aureus (BAA1717-USA 300, SA) were obtained from The American Type Culture Collection (ATCC).
# (§3) Examination of the potency of modified short peptides against PA and SA strains was performed by using the broth microdilution protocol from the Clinical and Laboratory Standards Institute (CLSI) guidelines (CLSI 2012) as described. Briefly, five freshly plated bacteria colonies were grown in cation adjusted MH2 broth (BD Biosciences) in a shaker incubator at 37° C., 220 RPM. Cells were grown to an optical density (OD600) of ~0.2 measured using a Microplate Spectrophotometer (Molecular Devices Spectra Max Plus). 100 μL of microbial culture containing ~5×10^5 CFU/mL of bacteria in the respective broths were introduced into each well containing 100 μL of peptides and incubated overnight at 37° C. Next, to check the bactericidal effects, 100 μL from each well was transferred and spread on sterile MH2 agar plates. The plates were incubated overnight at 37° C. and the number of colonies forming units (CFU) were calculated the following day. Readings of bacteria grown in media without any treatments were normalized to 100% as media control. For the mixed infection study, three freshly plated bacteria colonies each from PA, SA and ST plates were grown together in cation adjusted MH2 broth and proceeded as described above.
# [2] = test system: Pseudomonas aeruginosa (PA); assay: Broth microdilution anti-bacterial assay (CLSI), Pseudomonas aeruginosa; type: cell-based, Pseudomonas aeruginosa (ATCC 14213); conditions: for MIC / MBC: PA; for MIC: overnight, 37° C., ≥99% inhibition; for MBC: ≥99% killing
# Experimental: as §1, §2, §3
# [3] = test system: Pseudomonas aeruginosa (PA); assay: Combination of peptide with antibiotics against PA; type: cell-based; conditions: with colistin
# Excerpt: In view of the results above, the peptide variants as described herein show synergistic anti-bacterial effects when used in combination with antibiotics.
# In some examples, the methods described herein further comprises administering an antibiotic agent to the subject.
Compound,Cationicity (bacteria),Mechanism of killing bacteria (bacteria),"Killing efficacy (in words) (bacteria; >99% inhibition or killing, even at 500 μM)",MIC [1] [µM],MBC [1] [µM],MIC [2] [µM],MBC [2] [µM],MBC in combination with colistin [3],MIC in combination with colistin [3],anti-bacterial activity (in words) ([2]; PA and SA)
"KVNQIGSVTESIQACKLAQSN [E1A, reference compound]",Non-cationic (cannot disrupt,Unknown/non-membrane,Does not achieve >99%,,,,,,,
CC(C)C[C@H](NC(=O)[C@H](C)NC(=O)[C@H](CC(C)C)NC(=O)[C@H](CCCCN)NC(=O)[C@H](CC(C)C)NC(=O)[C@H](C)NC(=O)[C@H](CCCCN)NC(=O)[C@H](CCCCN)NC(=O)[C@H](CO)NC(=O)[C@H](CC(C)C)NC(=O)[C@H](CCCCN)NC(=O)[C@H](CC(C)C)NC(=O)[C@H](Cc1ccc2ccccc2c1)NC(=O)[C@H](CCCCN)NC(=O)[C@H](CCCCN)NC(=O)[C@H](CC(C)C)NC(=O)[C@H](CC(C)C)NC(=O)[C@H](CCCCN)NC(=O)[C@@H](N)CCCCN)C(N)=O [E1AM2 W72Nal V8L Q19L C-2-NH2] (H-KKLLKK[2Nal]LKLSKKALKLAL-NH2),,,,1.56,1.56,1.56,1.56,reduced minimum bactericidal concentration (MBC),reduced minimum inhibitory concentration (MIC),
KKLLKKWLKLSKKALKLA-NH2 [V8LQ19L C-3],,,,>6.25,>8.26,>6.25,>6.25,,,strong potency
KKLLKKWVKLSKKALKLAQLL-NH2 [S20L],,,,6.25,12.5,6.25,12.5,,,
KKLLKKWVKLSKKALKLAKSL-NH2 [Q19K],,,,12.5,25,12.5,25,,,
CC(C)C[C@@H](NC(=O)[C@@H](C)NC(=O)[C@@H](CC(C)C)NC(=O)[C@@H](CCCCN)NC(=O)[C@@H](CC(C)C)NC(=O)[C@@H](C)NC(=O)[C@@H](CCCCN)NC(=O)[C@@H](CCCCN)NC(=O)[C@@H](CO)NC(=O)[C@@H](CC(C)C)NC(=O)[C@@H](CCCCN)NC(=O)[C@@H](CC(C)C)NC(=O)[C@@H](Cc1c[nH]c2ccccc12)NC(=O)[C@@H](CCCCN)NC(=O)[C@@H](CCCCN)NC(=O)[C@@H](CC(C)C)NC(=O)[C@@H](CC(C)C)NC(=O)[C@@H](CCCCN)NC(=O)[C@H](N)CCCCN)C(N)=O [E1AM2 D-V8L Q19L C-2-NH2] (H-[dK][dK][dL][dL][dK][dK][dW][dL][dK][dL][dS][dK][dK][dA][dL][dK][dL][dA][dL]-NH2),,,,1.56,1.56,1.56,1.56,reduced minimum bactericidal concentration (MBC),reduced minimum inhibitory concentration (MIC),
